Assay results: patent US20260132129A1 (Genesis Therapeutics, Inc., priority 2022, published 2026)

Target: T1, PI3Kα H1047R (T47D cells) (Homo sapiens, UniProt P42336, H1047R)
T1 construct: endogenous in cells; host or cells: T47D cells
Experiment: PI3Kα cellular assay: pAKT HTRF in T47D cells after EGF stimulation
Assay type: cell-based
Conditions: for IC50: T47D cells (PI3Kα H1047R), pAKT S473 HTRF
Description: SKBR3 or T47D cells are seeded in DMEM containing 10% FBS at 25k cells/well into 96-well cell culture format. Cells are incubated overnight at 37° C. in a 5% CO2 incubator and the following day cell media is aspirated, adherent cells are washed 1× with room temperature PBS prior to serum-free media application. Cells are returned to 37° C. 5% CO2 incubator and incubated a further 16 hrs. Compounds are added to serum starved adherent cells with a top dose of 10,000 nM and 3× multiple dose reductions for a minimum dose of 0.5 nM diluted in DMSO. Cell/compound incubation continues for 1 hr in a 37° C., 5% CO2 incubator prior to 10 minute PIK3CA stimulation with 20 ng/ml EGF. Cells treated with 0.1% DMSO and 20 ng/mL EGF are employed as negative control, cells treated with 10 uM Alpelisib and 20 ng/mL EGF are employed as a positive control. After 10 mins, plates are removed from incubator and cells are lysed with buffer and shaking 45 minutes. […] 384 well plate is left overnight at room temperature before reading HTRF on an Envision plate reader.
ND denotes value not determined with that assay for the specified compound; • for T47D (H1047R) selectivity over SKBR3 (WT): A denotes >20-fold; B denotes 20-fold≥value>5-fold; C denotes ≤5-fold. ND denotes value not determined with that assay for the specified compound; and • for T47D pAKT lipophilic efficiency (LiPE): A denotes >4; B denotes 4≥value>2; C denotes ≤2. ND denotes value not determined with that assay for the specified compound.

[1] = selectivity T47D (H1047R) over SKBR3 (WT), pAKT HTRF
[2] = selectivity of T47D (H1047R) over SKBR3 (WT) pAKT IC50
[3] = 1 hr compound, 20 ng/ml EGF 10 min

T1 sequence (P42336 whole entry H1047R): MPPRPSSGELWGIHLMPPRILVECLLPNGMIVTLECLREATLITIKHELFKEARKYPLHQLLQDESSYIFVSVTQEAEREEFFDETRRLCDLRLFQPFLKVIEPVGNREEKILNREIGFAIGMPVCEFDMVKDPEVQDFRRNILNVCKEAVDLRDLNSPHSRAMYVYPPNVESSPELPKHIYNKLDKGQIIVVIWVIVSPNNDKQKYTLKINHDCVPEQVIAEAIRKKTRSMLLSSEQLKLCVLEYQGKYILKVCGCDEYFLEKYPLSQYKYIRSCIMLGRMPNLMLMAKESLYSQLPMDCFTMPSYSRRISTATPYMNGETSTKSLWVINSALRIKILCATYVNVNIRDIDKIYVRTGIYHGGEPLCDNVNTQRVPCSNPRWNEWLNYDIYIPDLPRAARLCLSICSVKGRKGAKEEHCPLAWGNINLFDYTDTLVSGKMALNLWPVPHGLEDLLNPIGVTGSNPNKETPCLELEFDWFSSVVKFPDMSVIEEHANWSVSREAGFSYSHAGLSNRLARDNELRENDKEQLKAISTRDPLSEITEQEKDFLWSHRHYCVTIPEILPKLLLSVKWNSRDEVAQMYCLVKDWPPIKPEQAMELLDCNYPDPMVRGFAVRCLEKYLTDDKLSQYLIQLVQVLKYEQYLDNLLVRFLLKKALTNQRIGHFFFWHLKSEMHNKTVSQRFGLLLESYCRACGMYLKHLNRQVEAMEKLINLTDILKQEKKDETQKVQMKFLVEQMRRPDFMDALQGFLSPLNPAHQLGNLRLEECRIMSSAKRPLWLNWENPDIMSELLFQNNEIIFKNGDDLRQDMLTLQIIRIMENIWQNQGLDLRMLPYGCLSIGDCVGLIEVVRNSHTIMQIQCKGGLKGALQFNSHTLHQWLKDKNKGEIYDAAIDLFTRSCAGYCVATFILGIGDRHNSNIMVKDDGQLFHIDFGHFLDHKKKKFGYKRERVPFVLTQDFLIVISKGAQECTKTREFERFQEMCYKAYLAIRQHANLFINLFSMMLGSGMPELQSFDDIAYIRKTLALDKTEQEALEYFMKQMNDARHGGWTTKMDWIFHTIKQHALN
T1 sequence (P27986 whole entry partner): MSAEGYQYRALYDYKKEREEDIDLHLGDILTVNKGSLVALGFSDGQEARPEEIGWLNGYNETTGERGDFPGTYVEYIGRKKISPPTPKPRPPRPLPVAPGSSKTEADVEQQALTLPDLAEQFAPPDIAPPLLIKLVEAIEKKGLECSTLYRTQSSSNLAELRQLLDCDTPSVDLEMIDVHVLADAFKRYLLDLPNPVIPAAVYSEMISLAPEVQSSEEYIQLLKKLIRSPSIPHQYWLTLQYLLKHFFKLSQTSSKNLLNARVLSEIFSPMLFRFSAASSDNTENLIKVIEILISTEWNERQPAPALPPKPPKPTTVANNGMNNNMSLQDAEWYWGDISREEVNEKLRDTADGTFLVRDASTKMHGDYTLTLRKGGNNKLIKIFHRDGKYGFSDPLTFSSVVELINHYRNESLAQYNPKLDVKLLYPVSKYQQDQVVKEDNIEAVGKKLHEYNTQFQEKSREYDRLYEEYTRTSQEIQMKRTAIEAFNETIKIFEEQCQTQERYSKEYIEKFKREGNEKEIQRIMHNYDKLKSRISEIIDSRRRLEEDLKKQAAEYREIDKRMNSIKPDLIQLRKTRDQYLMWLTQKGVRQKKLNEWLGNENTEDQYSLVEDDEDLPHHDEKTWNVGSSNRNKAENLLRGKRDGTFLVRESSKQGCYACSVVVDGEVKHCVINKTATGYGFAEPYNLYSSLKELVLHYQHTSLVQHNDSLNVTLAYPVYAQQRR

SMILES | IC50 (EGF stimulation) [nM] | T47D pAKT S473 HTRF IC50 (H1047R): T47D (H1047R) selectivity over SKBR3 (WT) [1] | T47D pAKT S473 HTRF IC50 (H1047R): T47D (H1047R) selectivity over SKBR3 (WT) [2] | IC50 [3] [nM]
Cc1cc([C@H](C)Nc2ccccc2S(=O)(=O)O)c2nc(-c3ccc(C4CC4)cc3)c(C3CC3)c(=O)n2c1 [Compound 1275] | > 2000 | C (C denotes ≤5-fold) |  | 
Cc1cc(C(C)Nc2ccccc2-c2ccnnc2)c2nc(N3CC(C)OC(C)C3)cc(=O)n2c1 (stereo not shown) [Compound 698] |  |  | C (C denotes ≤5-fold) | 
Cc1cc([C@H](C)Nc2ccccc2C(N)=O)c2nc(-c3ccc4c(C)cn(C)c4c3)c(C)c(=O)n2c1 [Compound 1131] | > 2000 | C (C denotes ≤5-fold) |  | 
Cc1cc(C(C)Nc2ccccc2C(=O)O)c2nc(-c3ccncc3)c(C)c(=O)n2c1 (stereo not shown) [Compound 1408, 2-((1-(3,7-dimethyl-4-oxo-2-(pyridin-4-yl)-4H-pyrido[1,2-a]pyrimidin-9-yl)ethyl)amino)benzoic acid] | < 100 | A (A denotes >20-fold) |  | 
Cc1cc(C(C)Nc2ccccc2C(=O)O)c2nc(N3CCC4(CC3)CC(=O)N4)cc(=O)n2c1 (stereo not shown) [Compound 490] |  | C (C denotes ≤5-fold) |  | > 2000
Cc1cc([C@@H](C)Nc2ccccc2-c2ccnnc2)c2nc(N3Cc4ccccc4C3)c(C3CC3)c(=O)n2c1 [Compound 874] | > 2000 |  |  | 
COc1cc(-c2nc3c([C@@H](C)Nc4ccccc4C(=O)O)cc(C)cn3c(=O)c2C)ccn1 [Compound 1101] | < 100 | A (A denotes >20-fold) |  | 
CC(=O)c1ccc(-c2cc(=O)n3cc(C)cc([C@@H](C)Nc4ccccc4C(=O)O)c3n2)cc1 [Compound 660] | < 100 |  | A (A denotes >20-fold) | 
Cc1cc(C(C)Nc2ccccc2C(=O)O)c2nc(-c3ccc4c(n3)c(C)nn4C)cc(=O)n2c1 (stereo not shown) [Compound 858] | 100 to 500 |  | A (A denotes >20-fold) | 
Cc1cc(C(C)Nc2ccccc2C(=O)O)c2nc(C3CCN(CC(F)F)CC3)cc(=O)n2c1 (stereo not shown) [Compound 1308] | 100 to 500 | A (A denotes >20-fold) |  | 
Cc1cc([C@H](C)Nc2ccccc2S(N)(=O)=O)c2nc(-c3cccnc3)c(C)c(=O)n2c1 [Compound 1108] | 500 to 2000 | B (B denotes 20-fold≥value>5-fold) |  | 
Cc1cc([C@@H](C)Nc2ccccc2C(=O)O)c2nc(-c3ccc(F)c(C#N)c3)c(C)c(=O)n2c1 (single isomer, unassigned) [Compound 947] | < 100 |  | A (A denotes >20-fold) | 
CC(=O)N1CCC(c2cc(=O)n3cc(C)cc(C(C)Nc4ccccc4C(=O)O)c3n2)CC1 (stereo not shown) [Compound 508] |  | C (C denotes ≤5-fold) |  | > 2000
Cc1cc(C(C)Nc2ccccc2C(=O)O)c2nc(N3CCSCC3)cc(=O)n2c1 (stereo not shown) [Compound 140] |  | A (A denotes >20-fold) |  | 100 to 500
Cc1cc([C@H](C)Nc2ccccc2C(=O)O)c2nc(-c3cnc(C#N)c(Cl)c3)c(C)c(=O)n2c1 (single isomer, unassigned) [Compound 978] | < 100 |  | A (A denotes >20-fold) | 
Cc1cc(C(C)Nc2c(F)cccc2C(=O)O)c2nc(N3CCOCC3)cc(=O)n2c1 (stereo not shown) [Compound 290] |  | C (C denotes ≤5-fold) |  | > 2000
Cc1cc([C@H](C)Nc2cccc3[nH]nnc23)c2nc(N3CCOCC3)cc(=O)n2c1 [Compound 745] |  |  | C (C denotes ≤5-fold) | 
Cc1cc(C(C)Nc2ccccc2C(N)=O)c2nc(-c3ccnc(C4CC4)c3)c(C)c(=O)n2c1 (stereo not shown) [Compound 1090] | < 100 | A (A denotes >20-fold) |  | 
Cc1cc([C@H](C)Nc2ccccc2C(=O)O)c2nc(-c3ccc4nc(CO)[nH]c4c3)cc(=O)n2c1 [Compound 489] |  | C (C denotes ≤5-fold) |  | > 2000
Cc1cc([C@H](C)Nc2ccccc2S(N)(=O)=O)c2nc(-c3ccc(C4CCNCC4)nc3)c(C)c(=O)n2c1 [Compound 1345] |  | C (C denotes ≤5-fold) |  | 

SMILES | IC50 (EGF stimulation) [nM] | T47D pAKT S473 HTRF IC50 (H1047R): T47D (H1047R) selectivity over SKBR3 (WT) [1] | T47D pAKT S473 HTRF IC50 (H1047R): T47D (H1047R) selectivity over SKBR3 (WT) [2] | IC50 [3] [nM]
CC(=O)N=S(C)(=O)c1ccccc1N[C@H](C)c1cc(C)cn2c(=O)cc(N3CCOCC3)nc12 (stereo partly shown) [Compound 827] | > 2000 |  | C (C denotes ≤5-fold) | 
Cc1cc([C@H](C)Nc2ccccc2C(=O)NS(=O)(=O)N(C)C)c2nc(-c3cccc(F)c3)c(C)c(=O)n2c1 [Compound 1347] |  | B (B denotes 20-fold≥value>5-fold) |  | 
Cc1cc([C@@H](C)Nc2ccccc2C(=O)O)c2nc(-c3ccc4c(c3)c(C)c(C)n4C)cc(=O)n2c1 [Compound 775] | < 100 |  | A (A denotes >20-fold) | 
Cc1cc([C@H](C)Nc2ccccc2C(=O)O)c2nc([C@@H]3CCCOC3)c(C)c(=O)n2c1 [Compound 1281] | 500 to 2000 | B (B denotes 20-fold≥value>5-fold) |  | 
Cc1cc([C@H](C)Nc2ccccc2C(=O)O)c2nc(-c3ccc4c(c3)c(C#N)nn4C)c(C)c(=O)n2c1 [Compound 1082] | 500 to 2000 | B (B denotes 20-fold≥value>5-fold) |  | 
Cc1cc([C@H](C)Nc2ccccc2C(=O)O)c2nc(C3CCOCC3)cc(=O)n2c1 [Compound 317] |  | A (A denotes >20-fold) |  | 100 to 500
CCC(=O)N=S(C)(=O)c1ccccc1N[C@@H](C)c1cc(C)cn2c(=O)cc(N3CCOCC3)nc12 (stereo partly shown) [Compound 829] | > 2000 |  | C (C denotes ≤5-fold) | 
Cc1cc(C(C)Nc2ccccc2C(=O)O)c2nc(Nc3ccc(C(=O)O)cc3)cc(=O)n2c1 (stereo not shown) [Compound 369] |  | C (C denotes ≤5-fold) |  | > 2000
Cc1cc(C(C)Nc2ccccc2S(N)(=O)=O)c2nc(-c3cc(C)c4oc(=O)[nH]c4c3)cc(=O)n2c1 (stereo not shown) [Compound 570] |  | A (A denotes >20-fold) |  | 100 to 500
Cc1c(N2C[C@@H](C)O[C@@H](C)C2)nc2c([C@@H](C)Nc3ccccc3C(=O)O)cc(C(F)(F)F)cn2c1=O [Compound 907] |  |  | C (C denotes ≤5-fold) | 
Cc1cc(C(C)Nc2ccsc2-c2ccnnc2)c2nc(N3Cc4ccccc4C3)c(C)c(=O)n2c1 (stereo not shown) [Compound 1409, 2-(isoindolin-2-yl)-3,7-dimethyl-9-(1-((2-(pyridazin-4-yl)thiophen-3-yl)amino)ethyl)-4H-pyrido[1,2-a]pyrimidin-4-one] | 100 to 500 | A (A denotes >20-fold) |  | 
Cc1cc(C(C)Nc2ccccc2C(=O)C(F)(F)F)c2nc(N3Cc4ccccc4C3)c(C)c(=O)n2c1 (stereo not shown) [Compound 926] | > 2000 |  | C (C denotes ≤5-fold) | 
Cc1cc(C(C)Nc2ccccc2C(=O)O)c2nc(N3CCC4(CC3)CNC4=O)cc(=O)n2c1 (stereo not shown) [Compound 491] |  | C (C denotes ≤5-fold) |  | > 2000
Cc1cc(C(C)Nc2ccccc2C(N)=O)c2nc(-c3ccncc3)cc(=O)n2c1 (single isomer, unassigned) [Compound 439] |  | C (C denotes ≤5-fold) |  | > 2000
Cc1cc([C@H](C)Nc2ccccc2C(=O)O)c2nc(-c3ccc(C(F)F)nc3)c(C)c(=O)n2c1 [Compound 1149] | > 2000 | C (C denotes ≤5-fold) |  | 
Cc1cc(C(C)Nc2ccccc2C(=O)O)c2nc(C3CCC(C)CC3)cc(=O)n2c1 (stereo not shown) [Compound 339] |  | C (C denotes ≤5-fold) |  | 
Cc1cc([C@H](C)Nc2ccccc2C(=O)NS(C)(=O)=O)c2cc(-c3cccc(F)c3)c(C)c(=O)n2c1 [Compound 1351] |  | C (C denotes ≤5-fold) |  | 
Cc1cc(C(C)Nc2ccccc2C(=O)O)c2nc(-c3cnc4c(c3)c(C)nn4C3CC3)c(C)c(=O)n2c1 (stereo not shown) [Compound 1054] |  |  | B (B denotes 20-fold≥value>5-fold) | 
Cc1cc([C@H](C)Nc2ccccc2C(=O)O)c2nc(-c3ccc4c(c3)c(C(F)(F)F)nn4C)cc(=O)n2c1 [Compound 738] | > 2000 |  | C (C denotes ≤5-fold) | 
Cc1cc([C@H](C)Nc2ccccc2C(=O)O)c2nc(-c3ccc4c(C)nn(C)c4c3)cc(=O)n2c1 [Compound 820] |  |  | C (C denotes ≤5-fold) | 
